Structures are written as SMILES.

The test system of test [1] is Striga hermontica. Description: Herbicidal effect on Striga hermontica growth in a microtiter plate (procaulome length). In kind it is in vivo. To be noted: for Striga inhibition: 2 mg/mL of buffer, procaulome size after 3 days at 30° C. with GR24. The procedure:
The activity of the diacids on the parasitic plants Striga and Orobanche was tested by preparing solutions of the selected diacid in water or in phosphate buffer (50 mM, pH 7) at concentrations of 1 to 20 mg/mL.
1. In a 12-well microtiter plate, filter papers (Whatman 3) are placed at the bottom of the wells and moistened with sterile water. About 30 sterilized seeds (rinsed with 70% ethanol, then 1% (w/v) Ca(ClO)2 and Tween® 20, then thoroughly with water) of the holo- or hemiparasitic plants are placed, in each well, on the surface of the filter papers. After 10 days of incubation at 30° C. and in the dark, increasing amounts of a diacid or of culture supernatant are added, in the presence of a germination stimulant, GR24. After 3 days of incubation at 30° C., the development of the parasitic plants in the presence of a diacid or of culture supernatant is compared to the negative control (water, phosphate buffer or sterile culture medium), with a macroscope coupled to a camera. The length of the procaulomes (radicles) of the holo- or hemiparasitic plants is measured in order to express the phytotoxic capacity of the tested products.

Test [2] concerns Striga hermontica. As to the kind of experiment: Emergence of Striga seedlings in soil mesocosms with sorghum. In kind it is in vivo. To be noted: soil mesocosm with sorghum, after 2 months. The procedure: 2. Striga hermontica seeds (about 100 seeds/pot) and sorghum seeds (1 seed/pot) were introduced simultaneously into soil mesocosms, in the presence of increasing amounts of malic acid (2 and 20 g/L) or of culture supernatant, then grown in a greenhouse or a plot. The emergence of Striga seedlings is estimated visually, after 2 months of incubation. Phytotoxic capacity is estimated by comparison with a control without added malic acid or culture supernatant. A decrease of 22% in the number of Striga seedlings having emerged, compared to the control condition, is observed in the presence of 2 g/L malic acid and of 90% in the presence of 20 g/L malic acid. In the presence of the bacterial supernatant, a decrease of 58% in the number of Striga compared to the control condition was observed.

On to `O=C(O)CC(=O)O` [Malonic acid], for which the Striga inhibition result in the test with Striga hermontica [1] is reported as “++ (strong inhibition (procaulome size < 0.2 mm))”.

Regarding `O=C(O)CC(O)C(=O)O` (racemic) [DL-Malic acid], in the test with Striga hermontica [1], the Striga inhibition entry is “+ (weak inhibition (procaulome size between 0.2 and 0.8 mm))”.

Consider `O=C(O)C#CC(=O)O` [Acetylene dicarboxylic acid], for which, in the test on Striga hermontica [1], the Striga inhibition result is listed as “++ (strong inhibition (procaulome size < 0.2 mm))”.

Take `O=C(O)CCCC(=O)O` [Glutaric acid]: the Striga inhibition entry in the test on Striga hermontica [1] is on record as “++ (strong inhibition (procaulome size < 0.2 mm))”.

In the case of `O=C(O)C(=O)O` [Oxalic acid], in the test on Striga hermontica [1], the Striga inhibition result is listed as “++ (strong inhibition (procaulome size < 0.2 mm))”.

For the molecule `O=C(O)CC(O)C(=O)O` (stereo not shown) [malic acid], the figures for the “decrease in the number of Striga seedlings having emerged, compared to the control condition” value in the test on Striga hermontica [2] (2 g/L malic acid) and with Striga hermontica [2] (20 g/L malic acid) were 22% and 90%, respectively.

Regarding `O=C(O)/C=C\C(=O)O` [Maleic acid], in the test with Striga hermontica [1], the Striga inhibition result is “++ (strong inhibition (procaulome size < 0.2 mm))”.

On to `O=C(O)C[C@H](O)C(=O)O` [L-Malic acid], for which the Striga inhibition result in the test with Striga hermontica [1] is reported as “++ (strong inhibition (procaulome size < 0.2 mm))”. Also, the “effect on procaulome growth (FIG. 1)” value with Striga hermontica [1] (supernatant of strain grown in Nfb*, L-malic acid 2 mg/mL in phosphate buffer) is given as “inhibitory effect”.

The values above are taken from patent publication US20170042148A1, “USE OF A DICARBOXYLIC ACID TO CONTROL THE GROWTH OF HOLOPARASITIC OR HEMIPARASITIC PLANTS” (UNIVERSITE CLAUDE BERNARD LYON I, priority 2014, published 2017).
